Key:
[1] = test system: Lactobacillus plantarum TSP-Lp1; assay: Antibiotic susceptibility by disk diffusion method; format: cell-based; conditions: for zone of inhibition at 30 µg/disc: TSPLP1, 30 μg; for zone of inhibition at 5 µg/disc: TSPLP1, 5 μg; for zone of inhibition at 10 µg/disc: TSPLP1, 10 μg
Method: (§1) In order to ascertain the sensitivity of the thermostable strains in the food products towards antibiotics, Antibiotic susceptibility profile for Lactobacillus acidophilus is created by disk diffusion method. The susceptibility criteria used is established by Charteris et al. The Lactobacillus acidophilus is grown in Man Rogosa Sharpe Agar (MRSA).
The same set of study as the previous example is conducted using Lactobacillus plantarum strain of the present disclosure and the results for the study are depicted in Table No. 13 as below. The susceptibility criteria used is established by Charteris et al. The Lactobacillus acidophilus is grown in Man Rogosa Sharpe Agar, […]

[2] = test system: Lactobacillus acidophilus TSP-La1; assay: Antibiotic susceptibility by disk diffusion method; format: cell-based; conditions: for zone of inhibition at 30 µg/disc: TSPLA1, 30 μg; for zone of inhibition at 10 µg/disc: TSPLA1, 10 μg; for zone of inhibition at 5 µg/disc: TSPLA1, 5 μg
Method: as §1
67.15 grams is suspended in 1000 ml distilled water and heated to boiling to dissolve the medium completely. It is sterilized by autoclaving at 15 lbs pressure (121° C.) for 20 minutes, mixed well and poured into sterile Petri plates.
The concentration of the tested antibiotics has been included depending upon their minimum inhibitory concentrations.

[3] = Lactiplantibacillus plantarum, read-out: MIC Results
[4] = Lactobacillus acidophilus, read-out: MIC Results

CN(C)[C@@H]1C(O)=C(C(N)=O)C(=O)[C@@]2(O)C(O)=C3C(=O)c4c(O)cccc4[C@@](C)(O)[C@H]3C[C@@H]12 [Tetracycline] gave a zone of inhibition at 30 µg/disc [1, 3] of 14 mm and a zone of inhibition at 30 µg/disc [2, 4] of 11 mm.
With CN[C@H](CC(C)C)C(=O)N[C@H]1C(=O)N[C@@H](CC(N)=O)C(=O)N[C@H]2C(=O)N[C@H]3C(=O)N[C@H](C(=O)N[C@H](C(=O)O)c4cc(O)cc(O)c4-c4cc3ccc4O)[C@H](O)c3ccc(c(Cl)c3)Oc3cc2cc(c3O[C@@H]2O[C@H](CO)[C@@H](O)[C@H](O)[C@H]2O[C@H]2C[C@](C)(N)[C@H](O)[C@H](C)O2)Oc2ccc(cc2Cl)[C@H]1O [Vancomycin] the “MIC Results” value ([1]; 30 μg) was “No Zone”, the Resistant/Sensitive ([1]; 30 μg) was “Resistant” and the “MIC Results” value ([2]; 30 μg) was “No Zone”. The Resistant/Sensitive ([2]; 30 μg) was “Resistant”.
With CC1(C)S[C@@H]2[C@H](NC(=O)[C@H](N)c3ccccc3)C(=O)N2[C@H]1C(=O)O [Ampicillin] the “MIC Results” value ([1]; 10 μg) was “No Zone”, the Resistant/Sensitive ([1]; 10 μg) was “Resistant” and the Resistant/Sensitive ([2]; 10 μg) was “Resistant”. For the same compound, the zone of inhibition at 10 µg/disc [2, 4] was 10 mm.
With COc1cccc(OC)c1C(=O)N[C@@H]1C(=O)N2[C@@H]1SC(C)(C)[C@@H]2C(=O)O [Methicillin] the Resistant/Sensitive ([1]; 5 μg) was “Sensitive”, the zone of inhibition at 5 µg/disc [1, 3] was 15 mm and the Resistant/Sensitive ([2]; 5 μg) was “Sensitive”. The zone of inhibition at 5 µg/disc [2, 4] was 30 mm.
For CC[C@H]1OC(=O)[C@H](C)[C@@H](O[C@H]2C[C@@](C)(OC)[C@@H](O)[C@H](C)O2)[C@H](C)[C@@H](O[C@@H]2O[C@H](C)C[C@H](N(C)C)[C@H]2O)[C@](C)(O)C[C@@H](C)C(=O)[C@H](C)[C@@H](O)[C@]1(C)O [Erythromycin], the Resistant/Sensitive ([1]; 15 μg) was “Sensitive”, the zone of inhibition at 15 µg/disc ([1]; Lactiplantibacillus plantarum, TSPLP1, 15 μg, read-out: MIC Results) was 14 mm and the Resistant/Sensitive ([2]; 15 μg) was “Resistant”. It also gave a zone of inhibition at 15 µg/disc ([2]; Lactobacillus acidophilus, TSPLA1, 15 μg, read-out: MIC Results) of 14 mm.
With [H]/N=C(/N)N[C@H]1[C@H](O)[C@@H](O)[C@H](O[C@@H]2O[C@@H](C)[C@](O)(C=O)[C@H]2O[C@@H]2O[C@@H](CO)[C@H](O)[C@@H](O)[C@@H]2NC)[C@@H](N/C(N)=N\[H])[C@@H]1O [Streptomycin] the Resistant/Sensitive ([1]; 10 μg) was “Sensitive”, the zone of inhibition at 10 µg/disc [1, 3] was 20 mm and the Resistant/Sensitive ([2]; 10 μg) was “Sensitive”. The zone of inhibition at 10 µg/disc [2, 4] was 18 mm.
In the case of Gentamycin, the “MIC Results” value ([1]; 10 μg) is reported as 8 mm, the Resistant/Sensitive ([1]; 10 μg) is reported as “Resistant” and the “MIC Results” value ([2]; 10 μg) is reported as 10 mm. The Resistant/Sensitive ([2]; 10 μg) was “Resistant”.
For O=C(N[C@H](CO)[C@H](O)c1ccc([N+](=O)[O-])cc1)C(Cl)Cl [Chloramphenicol], the Resistant/Sensitive ([1]; 30 μg) was “Sensitive”, the zone of inhibition at 30 µg/disc [1, 3] was 31 mm and the Resistant/Sensitive ([2]; 30 μg) was “Sensitive”. The zone of inhibition at 30 µg/disc [2, 4] was 29 mm.
For CC1(C)S[C@@H]2[C@H](NC(=O)[C@H](N)c3ccc(O)cc3)C(=O)N2[C@H]1C(=O)O [Amoxicillin], the Resistant/Sensitive ([1]; 30 μg) was “Sensitive”, the zone of inhibition at 30 µg/disc [1, 3] was 39 mm and the Resistant/Sensitive ([2]; 30 μg) was “Sensitive”. It also gave a zone of inhibition at 30 µg/disc [2, 4] of 32 mm.
For O=C(O)c1cn(C2CC2)c2cc(N3CCNCC3)c(F)cc2c1=O [Ciprofloxacin], the Resistant/Sensitive ([1]; 10 μg) was “Sensitive” and the zone of inhibition at 10 µg/disc [1, 3] was 31 mm.
In the case of Cc1onc(-c2ccccc2)c1C(=O)N[C@@H]1C(=O)N2[C@@H]1SC(C)(C)[C@@H]2C(=O)O [Oxacillin], the “MIC Results” value ([1]; 1 μg) is reported as “No Zone”, the Resistant/Sensitive ([1]; 1 μg) is reported as “Resistant” and the “MIC Results” value ([2]; 1 μg) is reported as “No Zone”. The Resistant/Sensitive ([2]; 1 μg) was “Resistant”.
In the case of CO[C@H]1/C=C/O[C@@]2(C)Oc3c(C)c(O)c4c(O)c(c(/C=N/N5CCN(C)CC5)c(O)c4c3C2=O)NC(=O)/C(C)=C\C=C\[C@H](C)[C@H](O)[C@@H](C)[C@@H](O)[C@@H](C)[C@H](OC(C)=O)[C@@H]1C [Rifampicin], the zone of inhibition at 5 µg/disc [1, 3] is reported as 43 mm and the zone of inhibition at 5 µg/disc [2, 4] is reported as 35 mm.
CCC[C@@H]1C[C@@H](C(=O)N[C@@H]([C@H]2O[C@H](SC)[C@H](O)[C@@H](O)[C@H]2O)[C@H](C)Cl)N(C)C1 [Clindamycin] was tested, and the zone of inhibition at 2 µg/disc ([1]; Lactiplantibacillus plantarum, TSPLP1, 2 μg, read-out: MIC Results) was 34 mm and the zone of inhibition at 2 µg/disc ([2]; Lactobacillus acidophilus, TSPLA1, 2 μg, read-out: MIC Results) was 31 mm.
For CC(=O)OCC1=C(C(=O)O)N2C(=O)[C@@H](NC(=O)Cc3cccs3)[C@H]2SC1 [Cephalothin], the Resistant/Sensitive ([1]; 30 μg) was “Sensitive”, the zone of inhibition at 30 µg/disc [1, 3] was 23 mm and the Resistant/Sensitive ([2]; 30 μg) was “Sensitive”. The zone of inhibition at 30 µg/disc [2, 4] was 25 mm.
